Test results from ChEMBL document CHEMBL1255534, “Indoloditerpenes from an algicolous isolate of Aspergillus oryzae” (Bioorg Med Chem Lett, 2010).
Calls of active or inactive are those of the source. No cut-off for these calls is given here.

Experiments:
Colletotrichum lagenaria = assay: Antifungal activity against Colletotrichum lagenarium at 30 ug/ml by agar diffusion test; type: functional, organism-based
[1] = Toxicity in Artemia salina assessed as lethal rate at 100 ug/mL; type: organism-based; settings: in vivo, read-out: Activity
Escherichia coli = assay: Antibacterial activity against Escherichia coli at 30 ug/ml by agar diffusion test; type: functional
Fusarium oxysporum = assay: Antifungal activity against Fusarium oxysporum at 30 ug/ml by agar diffusion test; type: functional, organism-based

Compound | Activity (Colletotrichum lagenaria) | mortality at 100 ug/mL [1] [%] | diameter of the inhibition zone (DIZ) (Escherichia coli) | Activity (Fusarium oxysporum) | zone of inhibition at 30 µg/mL (Escherichia coli; read-out: DIZ) [mm]
CC(C)=C[C@H]1C[C@]2(C)[C@H](CC[C@@]3(C)[C@H]2CC[C@H]2Cc4c([nH]c5ccccc45)[C@@]23C)O1 | inactive | 74.2 | inactive | inactive | 
C/C=C1\[C@H]2C=C(C)C[C@]1(N)c1ccc(=O)[nH]c1C2 |  |  | inactive | inactive | 
CC(C)=C[C@H]1C[C@]2(C)[C@H](CC[C@@]3(C)[C@H]2CC[C@H]2CC(=O)c4ccccc4NC(=O)[C@@]23C)O1 [ASPORYZIN A] | inactive | 61.9 | inactive | inactive | 
CC(C)=C[C@H]1C[C@@]2(C)[C@@H]3CC[C@H]4CC5(O)c6ccccc6N5C(=O)[C@@H]4[C@@]3(C)CC[C@@H]2O1 (stereo partly specified) [ASPORYZIN B] | inactive | 42.9 | inactive | inactive | 
CC(C)(O)/C=C/C[C@]1(C)[C@@H](O)CC[C@@]2(C)[C@H]1CC[C@H]1Cc3c([nH]c4ccccc34)[C@@]12C [ASPORYZIN C] | inactive | 32.8 |  | inactive | 8.3
C=C1[C@H](Cc2c[nH]c3ccccc23)CC[C@H]2[C@](C)(CCC=C(C)C)[C@@H](O)CC[C@]12C [EMENIVEOL] | inactive | 31.4 | inactive | inactive | 
CC(C)=CCC[C@]1(C)[C@@H](O)CC[C@@]2(C)[C@H]1CC[C@H]1Cc3c([nH]c4ccccc34)[C@@]12C [EMINDOLE SB] | inactive | 60.3 | inactive | inactive | 
